According to US9751926B2 (priority 2013, dated 2017):
Non-standard residues stand in square brackets, D forms with d. Residues, ends and D or L forms follow the SMILES beside them. Met(O2) = CS(=O)(=O)CC[C@H](N)C(=O)O; Aib = CC(C)(N)C(=O)O

Tests used:
human glucagon receptor = molecular target: T1, human glucagon receptor (Homo sapiens, UniProt P47871); test: cAMP response (HTRF) of HEK-293 cells stably expressing human glucagon receptor; type: cell-based; conditions: Table 6; formed cAMP; read-out: EC50 hGLUC R
T1 construct: expressed in transfected cells
T1 sequence (P47871 26-477): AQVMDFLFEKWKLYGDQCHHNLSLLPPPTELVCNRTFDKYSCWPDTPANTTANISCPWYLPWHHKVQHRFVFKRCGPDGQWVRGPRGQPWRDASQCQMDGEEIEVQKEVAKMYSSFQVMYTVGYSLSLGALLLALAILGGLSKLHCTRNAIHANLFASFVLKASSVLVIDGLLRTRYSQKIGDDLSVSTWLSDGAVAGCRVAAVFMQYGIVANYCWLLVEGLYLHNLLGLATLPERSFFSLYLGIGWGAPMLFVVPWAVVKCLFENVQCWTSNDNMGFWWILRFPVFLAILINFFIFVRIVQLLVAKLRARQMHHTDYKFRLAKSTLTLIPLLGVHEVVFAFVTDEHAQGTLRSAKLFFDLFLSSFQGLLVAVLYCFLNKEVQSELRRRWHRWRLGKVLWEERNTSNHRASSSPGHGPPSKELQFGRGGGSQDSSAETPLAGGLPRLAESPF
Description: (§1) cAMP content of cells was determined using a kit from Cisbio Corp. (cat. no. 62AM4PEC) based on HTRF (Homogenous Time Resolved Fluorescence). For preparation, cells were split into T175 culture flasks and grown overnight to near confluency in medium (DMEM/10% FBS). Medium was then removed and cells washed with PBS lacking calcium and magnesium, followed by proteinase treatment with accutase (Sigma-Aldrich cat. no. A6964). Detached cells were washed and resuspended in assay buffer (1×HBSS; 20 mM HEPES, 0.1% BSA, 2 mM IBMX) and cellular density determined. They were then diluted to 400000 cells/ml and 25 μl-aliquots dispensed into the wells of 96-well plates. For measurement, 25 μl of test compound in assay buffer was added to the wells, followed by incubation for 30 minutes at room temperature.

human GLP-1 receptor = molecular target: T2, human GLP-1 receptor (Homo sapiens, UniProt P43220); test: cAMP response (HTRF) of HEK-293 cells stably expressing human GLP-1 receptor; type: cell-based; conditions: Table 6; formed cAMP; read-out: EC50 hGLP-1 R
T2 construct: expressed in transfected cells
T2 sequence (P43220 24-463): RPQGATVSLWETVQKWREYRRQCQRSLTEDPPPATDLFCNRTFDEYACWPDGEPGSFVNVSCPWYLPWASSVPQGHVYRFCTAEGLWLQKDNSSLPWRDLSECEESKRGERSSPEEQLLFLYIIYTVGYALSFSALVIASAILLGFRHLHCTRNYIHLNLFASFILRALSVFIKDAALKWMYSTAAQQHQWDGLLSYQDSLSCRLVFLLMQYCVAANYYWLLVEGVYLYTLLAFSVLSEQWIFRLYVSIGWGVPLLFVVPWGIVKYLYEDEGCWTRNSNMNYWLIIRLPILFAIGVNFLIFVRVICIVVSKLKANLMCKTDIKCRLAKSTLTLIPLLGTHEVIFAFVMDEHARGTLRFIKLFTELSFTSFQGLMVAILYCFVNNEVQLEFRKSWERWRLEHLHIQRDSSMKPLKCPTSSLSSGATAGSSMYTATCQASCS
Description: as §1

physchem = type: physicochemical

CC[C@H](C)[C@H](NC(=O)[C@H](CO)NC(=O)[C@H](CC(C)C)NC(=O)[C@H](CC(=O)O)NC(=O)[C@H](CO)NC(=O)[C@@H](NC(=O)[C@H](Cc1ccccc1)NC(=O)[C@@H](NC(=O)CNC(=O)[C@H](CCC(=O)O)NC(=O)C(C)(C)NC(=O)[C@@H](N)Cc1ccc(O)cc1)[C@@H](C)O)[C@@H](C)O)C(=O)N[C@@H](CCC(N)=O)C(=O)N[C@@H](CC(C)C)C(=O)N[C@@H](CCC(=O)O)C(=O)N[C@@H](CCC(=O)O)C(=O)N[C@@H](CCC(=O)O)C(=O)N[C@@H](C)C(=O)N[C@H](C(=O)N[C@@](C)(CCCN)C(=O)N[C@@H](CC(C)C)C(=O)N[C@@H](Cc1ccccc1)C(=O)N[C@H](C(=O)N[C@@H](CCC(=O)O)C(=O)N[C@@H](Cc1c[nH]c2ccccc12)C(=O)N[C@@H](CC(C)C)C(=O)N[C@@H](CCCCN)C(=O)N[C@@H](C)C(=O)NCC(=O)NCC(=O)N1CCC[C@H]1C(=O)N[C@@H](CO)C(=O)N[C@@H](CO)C(=O)NCC(=O)N[C@@H](C)C(=O)N1CCC[C@H]1C(=O)N1CCC[C@H]1C(=O)N1CCC[C@H]1C(=O)N[C@@H](CO)C(N)=O)[C@@H](C)CC)C(C)C [compound 19] showed an EC50 (human glucagon receptor) of over 1000 nM and an EC50 (human GLP-1 receptor) of 0.0012 nM.
In the case of CC[C@H](C)[C@H](NC(=O)[C@H](CO)NC(=O)[C@H](CC(C)C)NC(=O)[C@H](CC(=O)O)NC(=O)[C@H](CO)NC(=O)[C@@H](NC(=O)[C@H](Cc1ccccc1)NC(=O)[C@@H](NC(=O)CNC(=O)[C@H](CCC(=O)O)NC(=O)C(C)(C)NC(=O)[C@@H](N)Cc1ccc(O)cc1)[C@@H](C)O)[C@@H](C)O)C(=O)N[C@@H](CCC(N)=O)C(=O)N[C@@H](CCSC)C(=O)N[C@@H](CCC(=O)O)C(=O)N[C@@H](CCCCN)C(=O)N[C@@H](CCC(=O)O)C(=O)N[C@@H](C)C(=O)N[C@H](C(=O)N[C@@H](CCCNC(=N)N)C(=O)N[C@@H](CC(C)C)C(=O)N[C@@H](Cc1ccccc1)C(=O)N[C@H](C(=O)N[C@@H](CCC(=O)O)C(=O)N[C@@H](Cc1c[nH]c2ccccc12)C(=O)N[C@@H](CC(C)C)C(=O)N[C@@H](CCCCN)C(=O)N[C@@H](C)C(=O)NCC(=O)NCC(=O)N1CCC[C@H]1C(=O)N[C@@H](CO)C(=O)N[C@@H](CO)C(=O)NCC(=O)N[C@@H](C)C(=O)N1CCC[C@H]1C(=O)N1CCC[C@H]1C(=O)N1CCC[C@H]1C(=O)N[C@@H](CO)C(N)=O)[C@@H](C)CC)C(C)C [compound 9] (H-Y[Aib]EGTFTSDLSIQMEKEAVRLFIEWLKAGGPSSGAPPPS-NH2), the EC50 (human glucagon receptor) is reported as over 1000 nM and the EC50 (human GLP-1 receptor) is reported as 0.0011 nM.
CC[C@H](C)[C@H](NC(=O)[C@H](CO)NC(=O)[C@H](CC(C)C)NC(=O)[C@H](CC(=O)O)NC(=O)[C@H](CO)NC(=O)[C@@H](NC(=O)[C@H](Cc1ccccc1)NC(=O)[C@@H](NC(=O)CNC(=O)[C@H](CCC(=O)O)NC(=O)C(C)(C)NC(=O)[C@@H](N)Cc1ccc(O)cc1)[C@@H](C)O)[C@@H](C)O)C(=O)N[C@@H](CCC(N)=O)C(=O)N[C@@H](CC(C)C)C(=O)N[C@@H](CCC(=O)O)C(=O)N[C@@H](CCC(=O)O)C(=O)N[C@@H](CCC(=O)O)C(=O)N[C@@H](C)C(=O)N[C@H](C(=O)N[C@](C)(CCCCN)C(=O)N[C@@H](CC(C)C)C(=O)N[C@@H](Cc1ccccc1)C(=O)N[C@H](C(=O)N[C@@H](CCC(=O)O)C(=O)N[C@@H](Cc1c[nH]c2ccccc12)C(=O)N[C@@H](CC(C)C)C(=O)N[C@@H](CCCCN)C(=O)N[C@@H](C)C(=O)NCC(=O)NCC(=O)N1CCC[C@H]1C(=O)N[C@@H](CO)C(=O)N[C@@H](CO)C(=O)NCC(=O)N[C@@H](C)C(=O)N1CCC[C@H]1C(=O)N1CCC[C@H]1C(=O)N1CCC[C@H]1C(=O)N[C@@H](CO)C(N)=O)[C@@H](C)CC)C(C)C [compound 18] showed an EC50 (human glucagon receptor) of over 1000 nM.
Work on CC[C@H](C)[C@H](NC(=O)[C@H](CO)NC(=O)[C@H](CC(C)C)NC(=O)[C@H](CC(=O)O)NC(=O)[C@H](CO)NC(=O)[C@@H](NC(=O)[C@H](Cc1ccccc1)NC(=O)[C@@H](NC(=O)CNC(=O)[C@H](CCC(=O)O)NC(=O)C(C)(C)NC(=O)[C@@H](N)Cc1ccc(O)cc1)[C@@H](C)O)[C@@H](C)O)C(=O)N[C@@H](CCC(N)=O)C(=O)N[C@@H](CC(C)C)C(=O)N[C@@H](CCC(=O)O)C(=O)N[C@@H](CCCCN)C(=O)N[C@@H](CCC(=O)O)C(=O)N[C@@H](C)C(=O)N[C@H](C(=O)N[C@@H](CCCNC(=N)N)C(=O)N[C@@H](CC(C)C)C(=O)N[C@@H](Cc1ccccc1)C(=O)N[C@H](C(=O)N[C@@H](CCC(=O)O)C(=O)N[C@@H](Cc1c[nH]c2ccccc12)C(=O)N[C@@H](CC(C)C)C(=O)N[C@@H](CCCCN)C(=O)N[C@@H](C)C(=O)NCC(=O)NCC(=O)N1CCC[C@H]1C(=O)N[C@@H](CO)C(=O)N[C@@H](CO)C(=O)NCC(=O)N[C@@H](C)C(=O)N1CCC[C@H]1C(=O)N1CCC[C@H]1C(=O)N1CCC[C@H]1C(=O)N[C@@H](CO)C(N)=O)[C@@H](C)CC)C(C)C [compound 10] yielded an EC50 (human GLP-1 receptor) of 0.0012 nM.
Compound CC[C@H](C)[C@H](NC(=O)[C@H](CO)NC(=O)[C@H](CC(C)C)NC(=O)[C@H](CC(=O)O)NC(=O)[C@H](CO)NC(=O)[C@@H](NC(=O)[C@H](Cc1ccccc1)NC(=O)[C@@H](NC(=O)CNC(=O)[C@H](CCC(=O)O)NC(=O)C(C)(C)NC(=O)[C@@H](N)Cc1ccc(O)cc1)[C@@H](C)O)[C@@H](C)O)C(=O)N[C@@H](CCC(N)=O)C(=O)N[C@@H](CC(C)C)C(=O)N[C@@H](CCC(=O)O)C(=O)N[C@@H](CCCCN)C(=O)N[C@@H](CCC(=O)O)C(=O)N[C@@H](C)C(=O)N[C@H](C(=O)N[C@@H](CCCNC(=N)N)C(=O)N[C@@H](CC(C)C)C(=O)N[C@@H](Cc1ccccc1)C(=O)N[C@H](C(=O)N[C@@H](CCC(=O)O)C(=O)N[C@@H](Cc1c[nH]c2ccccc12)C(=O)N[C@@H](CC(C)C)C(=O)N[C@@H](CCCCN)C(=O)N[C@@H](C)C(=O)NCC(=O)NCC(=O)N1CCC[C@H]1C(=O)N[C@@H](CO)C(=O)N[C@@H](CO)C(=O)NCC(=O)N[C@@H](C)C(=O)N1CCC[C@H]1C(=O)N1CCC[C@H]1C(=O)N1CCC[C@H]1C(=O)N[C@@H](CO)C(N)=O)[C@@H](C)CC)C(C)C [compound 20] has an EC50 (human glucagon receptor) of over 1000 nM and an EC50 (human GLP-1 receptor) of 0.001 nM.
Work on CC[C@H](C)[C@H](NC(=O)[C@H](CO)NC(=O)[C@H](CC(C)C)NC(=O)[C@H](CC(=O)O)NC(=O)[C@H](CO)NC(=O)[C@@H](NC(=O)[C@H](Cc1ccccc1)NC(=O)[C@@H](NC(=O)CNC(=O)[C@H](CCC(=O)O)NC(=O)C(C)(C)NC(=O)[C@@H](N)Cc1ccc(O)cc1)[C@@H](C)O)[C@@H](C)O)C(=O)N[C@@H](CCC(N)=O)C(=O)N[C@@H](CC[S+](C)[O-])C(=O)N[C@@H](CCC(=O)O)C(=O)N[C@@H](CCCCN)C(=O)N[C@@H](CCC(=O)O)C(=O)N[C@@H](C)C(=O)N[C@H](C(=O)N[C@@H](CCCNC(=N)N)C(=O)N[C@@H](CC(C)C)C(=O)N[C@@H](Cc1ccccc1)C(=O)N[C@H](C(=O)N[C@@H](CCC(=O)O)C(=O)N[C@@H](Cc1c[nH]c2ccccc12)C(=O)N[C@@H](CC(C)C)C(=O)N[C@@H](CCCCN)C(=O)N[C@@H](C)C(=O)NCC(=O)NCC(=O)N1CCC[C@H]1C(=O)N[C@@H](CO)C(=O)N[C@@H](CO)C(=O)NCC(=O)N[C@@H](C)C(=O)N1CCC[C@H]1C(=O)N1CCC[C@H]1C(=O)N1CCC[C@H]1C(=O)N[C@@H](CO)C(N)=O)[C@@H](C)CC)C(C)C (stereo partly shown) [compound 13] yielded an EC50 (human glucagon receptor) of over 1000 nM.
With CC[C@H](C)[C@H](NC(=O)[C@H](CO)NC(=O)[C@H](CC(C)C)NC(=O)[C@H](CC(=O)O)NC(=O)[C@H](CO)NC(=O)[C@@H](NC(=O)[C@H](Cc1ccccc1)NC(=O)[C@@H](NC(=O)CNC(=O)[C@H](CCC(=O)O)NC(=O)C(C)(C)NC(=O)[C@@H](N)Cc1ccc(O)cc1)[C@@H](C)O)[C@@H](C)O)C(=O)N[C@@H](CCC(N)=O)C(=O)N[C@@H](CCS(C)(=O)=O)C(=O)N[C@@H](CCC(=O)O)C(=O)N[C@@H](CCCCN)C(=O)N[C@@H](CCC(=O)O)C(=O)N[C@@H](C)C(=O)N[C@H](C(=O)N[C@@H](CCCNC(=N)N)C(=O)N[C@@H](CC(C)C)C(=O)N[C@@H](Cc1ccccc1)C(=O)N[C@H](C(=O)N[C@@H](CCC(=O)O)C(=O)N[C@@H](Cc1c[nH]c2ccccc12)C(=O)N[C@@H](CC(C)C)C(=O)N[C@@H](CCCCN)C(=O)N[C@@H](C)C(=O)NCC(=O)NCC(=O)N1CCC[C@H]1C(=O)N[C@@H](CO)C(=O)N[C@@H](CO)C(=O)NCC(=O)N[C@@H](C)C(=O)N1CCC[C@H]1C(=O)N1CCC[C@H]1C(=O)N1CCC[C@H]1C(=O)N[C@@H](CO)C(N)=O)[C@@H](C)CC)C(C)C [compound 14] (H-Y[Aib]EGTFTSDLSIQ[Met(O2)]EKEAVRLFIEWLKAGGPSSGAPPPS-NH2) the solubility at 2 h (physchem; pH 4.5) was over 1000 µg/mL, the solubility at 2 h (physchem; pH 7.4) was over 1000 µg/mL and the EC50 (human glucagon receptor) was over 1000 nM.
Compound CC[C@H](C)[C@H](NC(=O)[C@H](CO)NC(=O)[C@H](CC(C)C)NC(=O)[C@H](CC(=O)O)NC(=O)[C@H](CO)NC(=O)[C@@H](NC(=O)[C@H](Cc1ccccc1)NC(=O)[C@@H](NC(=O)CNC(=O)[C@H](CCC(=O)O)NC(=O)C(C)(C)NC(=O)[C@@H](N)Cc1ccc(O)cc1)[C@@H](C)O)[C@@H](C)O)C(=O)N[C@@H](CCC(N)=O)C(=O)N[C@@H](CC(C)C)C(=O)N[C@@H](CCC(=O)O)C(=O)N[C@@H](CCC(=O)O)C(=O)N[C@@H](CCC(=O)O)C(=O)N[C@@H](C)C(=O)N[C@H](C(=O)N[C@@H](CCCNC(=N)N)C(=O)N[C@@H](CC(C)C)C(=O)N[C@@H](Cc1ccccc1)C(=O)N[C@H](C(=O)N[C@@H](CCC(=O)O)C(=O)N[C@@H](Cc1c[nH]c2ccccc12)C(=O)N[C@@H](CC(C)C)C(=O)N[C@@H](CCCCN)C(=O)N[C@@H](C)C(=O)NCC(=O)NCC(=O)N1CCC[C@H]1C(=O)N[C@@H](CO)C(=O)N[C@@H](CO)C(=O)NCC(=O)N[C@@H](C)C(=O)N1CCC[C@H]1C(=O)N1CCC[C@H]1C(=O)N1CCC[C@H]1C(=O)N[C@@H](CO)C(N)=O)[C@@H](C)CC)C(C)C [compound 15] (H-Y[Aib]EGTFTSDLSIQLEEEAVRLFIEWLKAGGPSSGAPPPS-NH2) has an EC50 (human glucagon receptor) of over 1000 nM.
